# Assay results taken from publication PMC5121622, “Cytotoxic and genotoxic potential of food-borne nitriles in a liver in vitro model” (Scientific Reports, 2016).
# pIC50: −log10 of the molar value. Entries after “also recorded” stand apart in the source; their conditions may differ. Where two headings read alike, the source gives them in different places.
# Assays:
# [1] = tested on: human liver cancer (HepG2) cells; assay: WST-1 cytotoxicity assay in HepG2 cells; assay type: cell-based; conditions: for change in cell viability: HepG2, 72 h, 0.3 to 30 mM; for pIC50: HepG2, 72 h treatment, WST-1 assay
# Procedure: (§1) HepG2 cells were purchased from the German Collection of Microorganisms and Cell Cultures (DSMZ, Braunschweig, Germany). HepG2 cells which constitutively express human CYP2E1 (E47 cells, HepG2-CYP2E1) and control HepG2 cells transfected with empty vector (C34 cells, HepG2- vector), originally established by Wu and Cederbaum[27], were kindly provided by C. Hellerbrand (University Medical Center Regensburg, Germany). The cells were cultured in low glucose Dulbecco’s modified eagle medium supplemented with 15% fetal calf serum and 1% Pen/Strep in an atmosphere with 5% CO2 at 37 °C and 95% air humidity.
# (§2) Cytotoxicity was determined with the WST-1 assay (Roche Diagnostics Deutschland GmbH, Mannheim, Germany). The assay is based on the ability of viable cells to cleave the tetrazolium salt WST-1 to formazan by their mitochondrial succinate-tetrazolium-reductase system. Cells were cultured at an initial density of 5000 cells/well in 96-well plates for 48 h. Then, cells were treated with the nitriles (0.3 to 30 mM, solved in distilled water) for 72 h. As positive control, 0.01% Triton X-100 was used. Following compound exposure and incubation, the WST 1 assay was performed according to the manufacturer’s instructions.
# The median growth inhibitory concentration (IC50) for compound cytotoxicity was calculated using Graphpad Prism 5.0 software (La Jolla, CA). After logarithmic transformation, IC50 values were calculated with equation 1: […]
# [2] = tested on: primary murine hepatocytes; assay: WST-1 cell viability in primary murine hepatocytes; assay type: cell-based, mouse; conditions: 72 h
# Procedure: Murine hepatocytes were obtained from 8–16 week-old, male C57BL6 mice (Charles River Laboratory, Sulzfeld, Germany) as described elsewhere. The institutional and national guidelines for the care and use of animals were followed, and all experimental procedures were approved by the institutional Animal Care and Use Committee at the University of Freiburg according to § 8.I of the Animal Welfare Act. 2–2.2 × 10^5 cells were plated in 24 well plates. The cells were left undisturbed for 4 h in a 5% CO2 atmosphere at 37 °C and then the medium was changed to serum free Williams’ Medium E supplemented with 100 nM dexamethasone. Within 24 h the cells were exposed to the test compounds and controls for 72 h.
# as §2
# quinone reductase = conditions: cited from earlier work
# HepG2-CYP2E1 cells [3] = assay: WST-1 cytotoxicity assay in CYP2E1-overexpressing HepG2 cells versus vector control cells; assay type: cell-based, human; conditions: 10 mM, 72 h
# Procedure: as §1, §2
# HepG2 cells [4] = assay: Comet assay (DNA strand breaks) in HepG2 cells; assay type: cell-based, human; conditions: HepG2, 24 h; for concentration with significant increase in DNA strand breaks: Olive Tail Moment and percent tail DNA
# Procedure: (§3) The single cell gel electrophoresis assay also known as Comet assay was carried out as described earlier with slight modifications. The percent tail DNA and the Olive Tail Moment (OTM) were calculated as indicators of DNA damage. For each sample, 102 systematically screened cells were evaluated. Briefly, HepG2 cells were seeded onto well plates. After 48 h of growth, the cells were exposed to the nitriles or ITC for 24 h. As positive control 50 μM B(α)P and as solvent control distilled water or 0.1% DMSO was used. To analyze the repair capacity of HepG2 cells, the test substances were removed after 24 h and incubated for another 24 h before the assay was terminated.
# Hepa1c1c7 cells = conditions: Hepa1c1c7, 5 mM, 72 h; cited from earlier work
# [5] = tested on: activated human T lymphocytes; parameters: method as in PMID 27161402; conditions: cited from earlier work
# HepG2-CYP2E1 cells [6] = assay: Comet assay in CYP2E1 transfected HepG2 and vector cells; assay type: cell-based, human; conditions: 24 h
# Procedure: as §1, §3
# HepG2 cells [7] = tested on: HepG2 cells; parameters: method as in Lamy et al. (2009); conditions: HepG2, Comet assay and micronucleus test; ref Lamy et al. (2009); cited from earlier work
# UM-2BB cells = tested on: UM-2BB cells; parameters: method as in Lui et al. (2003); conditions: MTT-assay, ref Lui et al. (2003); cited from earlier work
# [8] = Homo sapiens, read-out: IC50 (median growth inhibitory concentration)
smiles,measurement,setting,value
"C=CCCC#N [3-but-CN, 4-pentenenitrile]",change in cell viability,[1],did not result in significant changes in cell viability
same,viability of hepatocytes,[2],significantly decreased the viability of hepatocytes in a concentration-dependent manner
"CSCCCCCCC#N [6-MTH-CN, 7-(methylthio)heptylnitrile]",pIC50,[1]; [8],2.09
"C[S+]([O-])CCCCN=C=S (centres unmarked) [Sulforaphane, 4-(methylsulfinyl)butyl ITC]",concentration inducing quinone reductase,quinone reductase,2.5 µM
same,maximum induction of quinone reductase,quinone reductase,3.1 fold
"CSCCCCC#N [4-MTB-CN, 5-(methylthio)pentylnitrile]",pIC50,[1]; [8],1.75
same,difference in cytotoxicity between CYP2E1-overexpressing and vector control cells,HepG2-CYP2E1 cells [3],significant difference in cytotoxicity
same,concentration at which a viability loss was detected,[2],30000 µM
same,"DNA strand breaks, concentration dependence",HepG2 cells [4],concentration-dependent increase in DNA strand breaks
same,concentration with significant increase in DNA strand breaks,HepG2 cells [4],≥ 3 µM
"N#CCCc1ccccc1 [2-phenylethyl-CN, 3-phenylpropanenitrile]",pIC50,[1]; [8],1.74
"C=CCCCC#N [4-pent-CN, 5-hexenenitrile]",change in cell viability,[1],did not result in significant changes in cell viability
"C=CC(O)CC#N (centres unmarked) [crambene, 3-hydroxy-4-pentenenitrile]",cell proliferation diminished by,Hepa1c1c7 cells,76%
same,cell viability reduced by,Hepa1c1c7 cells,12%
"CSCCCCCC#N [5-MTP-CN, 6-(methylthio)hexylnitrile]",pIC50,[1]; [8],1.91
"N#CCc1ccccc1 [benzyl-CN, phenylacetonitrile]",pIC50,[1]; [8],1.70
same,influence on PGE2 release,[5]; 1 mM,did not influence PGE2 release
same,viability of hepatocytes,[2],significantly decreased the viability of hepatocytes in a concentration-dependent manner
same,concentration with significant increment of DNA strand breaks by CYP2E1-overexpression as compared to vector control cells,HepG2-CYP2E1 cells [6],≥ 3 µM
same,"DNA strand breaks, concentration dependence",HepG2 cells [4],concentration-dependent increase in DNA strand breaks
same,DNA damage compared with benzyl ITC,HepG2 cells [4]; 3 μM,comparable with the effect of benzyl ITC at the same concentration; also recorded: comparable with the effect of benzyl-ITC in the same concentration
same,concentration with significant increase in DNA strand breaks,HepG2 cells [4],≥ 3 µM
"C[S+]([O-])CCCCC#N (centres unmarked) [sulforaphane nitrile, 5-(methylsulfinyl)pentylnitrile]",concentration reaching a similar induction of quinone reductase as sulforaphane,quinone reductase,2 mM
"CSCCCCCN=C=S [5-MTP-ITC, 5-(methylthio)pentyl ITC]",concentration inducing DNA damage and mutagenicity,HepG2 cells [7],exceeding 1 μM
"CSCCCN=C=S [3-MTP-ITC, 3-(methylthio)propyl ITC]",concentration inducing DNA damage and mutagenicity,HepG2 cells [7],exceeding 1 μM
"C=CCC#N [allyl-CN, 3-butenenitrile]",change in cell viability,[1],did not result in significant changes in cell viability
same,viability of hepatocytes,[2],significantly decreased the viability of hepatocytes in a concentration-dependent manner
"S=C=NCc1ccccc1 [benzyl-ITC, benzyl ITC, reference compound]",pIC50,[1]; read-out: IC50,4.80
same,cytotoxic potency relative to the nitriles,"[1]; HepG2, ITC versus corresponding nitrile",1000 fold
same,pIC50,UM-2BB cells,4.77
same,concentration with strong interference with pro-inflammatory response including PGE2 release,[5]; activated human T lymphocytes,≥ 3 µM
"CSCCCC#N [3-MTP-CN, 4-(methylthio)butylnitrile]",pIC50,[1]; [8],1.71
